Experiments:
[1] = species: Homo sapiens; assay: Inhibition of DRAK2 autophosphorylation (unknown origin) at 20 microg/ml by ADP-Glo assay relative to control; conditions: dose 20.0 µg/ml
[2] = biological target: T1, ATP-citrate synthase (Homo sapiens) (UniProt P53396); assay: Inhibition of ATP citrate lyase (unknown origin) at 20 microg/ml by ADP-Glo assay relative to control; conditions: dose 20.0 µg/ml
T1 sequence (whole entry): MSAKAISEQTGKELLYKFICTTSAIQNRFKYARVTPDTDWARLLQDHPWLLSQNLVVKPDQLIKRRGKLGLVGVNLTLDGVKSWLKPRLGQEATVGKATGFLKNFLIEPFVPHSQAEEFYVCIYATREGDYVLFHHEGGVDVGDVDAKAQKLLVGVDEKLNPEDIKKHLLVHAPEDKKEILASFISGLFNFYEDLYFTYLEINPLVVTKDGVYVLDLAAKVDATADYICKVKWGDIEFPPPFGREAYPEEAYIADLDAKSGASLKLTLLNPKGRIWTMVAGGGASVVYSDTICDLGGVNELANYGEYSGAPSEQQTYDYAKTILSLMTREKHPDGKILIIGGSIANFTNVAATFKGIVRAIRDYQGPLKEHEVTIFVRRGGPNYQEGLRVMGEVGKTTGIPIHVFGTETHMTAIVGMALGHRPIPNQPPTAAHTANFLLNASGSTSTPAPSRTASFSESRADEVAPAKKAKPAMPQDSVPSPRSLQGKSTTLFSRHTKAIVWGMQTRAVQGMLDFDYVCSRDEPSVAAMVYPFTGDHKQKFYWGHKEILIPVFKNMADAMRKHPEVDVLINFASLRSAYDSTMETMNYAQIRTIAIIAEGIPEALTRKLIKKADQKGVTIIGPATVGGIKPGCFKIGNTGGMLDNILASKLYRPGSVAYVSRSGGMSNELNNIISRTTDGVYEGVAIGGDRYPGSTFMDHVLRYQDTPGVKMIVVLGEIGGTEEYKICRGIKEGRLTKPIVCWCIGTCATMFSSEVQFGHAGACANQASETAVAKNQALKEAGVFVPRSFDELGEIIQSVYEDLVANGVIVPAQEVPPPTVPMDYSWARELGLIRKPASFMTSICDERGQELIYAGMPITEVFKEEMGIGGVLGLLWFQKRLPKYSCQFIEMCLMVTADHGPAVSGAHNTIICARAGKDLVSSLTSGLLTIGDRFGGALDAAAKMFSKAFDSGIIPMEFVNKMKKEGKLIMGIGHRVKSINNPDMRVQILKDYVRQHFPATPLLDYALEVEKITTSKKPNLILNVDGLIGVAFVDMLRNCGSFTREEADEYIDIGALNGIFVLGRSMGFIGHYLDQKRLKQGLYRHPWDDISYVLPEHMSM

Row | inhibition [1] | inhibition [2] | SMILES
1 | 16.5% | 5.1% | C/C=C1/C[N@@+]2(C)CC[C@@]34c5ccccc5N[C@]32C(=O)[C@@H]2[C@H](C)OC[C@@]4(C(=O)[O-])[C@H]12
2 | 4.5% | 5.5% | C/C=C1/C[N@@+]2(C)CC[C@@]34c5ccccc5N[C@]32C(=O)[C@]2(C)OC[C@@]4(C(=O)[O-])[C@H]12
3 | 47.7% | 49.2% | C/C=C1/C[N@@+]2(C)CC[C@@]34c5ccccc5N[C@]32C(=O)[C@@H]2COC[C@@]4(C(=O)[O-])[C@H]12
4 | 49.2% | 17% | C/C=C1/C[N@@+]2(C)CC[C@@]34c5ccccc5N[C@]32C(=O)[C@H]2[C@@H]1[C@]4(C(=O)[O-])CO[C@@H]2C
